The values that follow come from ChEMBL document CHEMBL5550113, “Bioisoteres for carboxylic acids: From ionized isosteres to novel unionized replacements” (Bioorg Med Chem, 2024).

The structures appear in SMILES notation.

Chain of CDK12/Cyclin K (O75909 whole entry): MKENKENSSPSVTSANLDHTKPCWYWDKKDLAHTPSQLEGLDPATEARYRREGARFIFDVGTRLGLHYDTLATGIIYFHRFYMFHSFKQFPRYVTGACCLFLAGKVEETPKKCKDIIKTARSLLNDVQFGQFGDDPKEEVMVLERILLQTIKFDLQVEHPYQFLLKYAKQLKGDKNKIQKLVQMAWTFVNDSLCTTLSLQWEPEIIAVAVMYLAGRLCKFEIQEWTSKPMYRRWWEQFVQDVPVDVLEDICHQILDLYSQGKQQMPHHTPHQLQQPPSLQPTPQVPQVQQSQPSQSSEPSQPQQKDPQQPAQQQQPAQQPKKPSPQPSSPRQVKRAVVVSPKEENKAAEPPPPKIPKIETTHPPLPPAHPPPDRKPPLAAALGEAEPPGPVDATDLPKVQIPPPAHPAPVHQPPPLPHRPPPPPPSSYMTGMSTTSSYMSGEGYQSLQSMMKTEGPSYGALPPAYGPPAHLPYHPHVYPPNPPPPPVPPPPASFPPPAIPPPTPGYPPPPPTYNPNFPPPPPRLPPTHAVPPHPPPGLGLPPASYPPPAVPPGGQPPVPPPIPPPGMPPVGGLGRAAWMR
Chain of CDK12/Cyclin K (Q9NYV4 whole entry): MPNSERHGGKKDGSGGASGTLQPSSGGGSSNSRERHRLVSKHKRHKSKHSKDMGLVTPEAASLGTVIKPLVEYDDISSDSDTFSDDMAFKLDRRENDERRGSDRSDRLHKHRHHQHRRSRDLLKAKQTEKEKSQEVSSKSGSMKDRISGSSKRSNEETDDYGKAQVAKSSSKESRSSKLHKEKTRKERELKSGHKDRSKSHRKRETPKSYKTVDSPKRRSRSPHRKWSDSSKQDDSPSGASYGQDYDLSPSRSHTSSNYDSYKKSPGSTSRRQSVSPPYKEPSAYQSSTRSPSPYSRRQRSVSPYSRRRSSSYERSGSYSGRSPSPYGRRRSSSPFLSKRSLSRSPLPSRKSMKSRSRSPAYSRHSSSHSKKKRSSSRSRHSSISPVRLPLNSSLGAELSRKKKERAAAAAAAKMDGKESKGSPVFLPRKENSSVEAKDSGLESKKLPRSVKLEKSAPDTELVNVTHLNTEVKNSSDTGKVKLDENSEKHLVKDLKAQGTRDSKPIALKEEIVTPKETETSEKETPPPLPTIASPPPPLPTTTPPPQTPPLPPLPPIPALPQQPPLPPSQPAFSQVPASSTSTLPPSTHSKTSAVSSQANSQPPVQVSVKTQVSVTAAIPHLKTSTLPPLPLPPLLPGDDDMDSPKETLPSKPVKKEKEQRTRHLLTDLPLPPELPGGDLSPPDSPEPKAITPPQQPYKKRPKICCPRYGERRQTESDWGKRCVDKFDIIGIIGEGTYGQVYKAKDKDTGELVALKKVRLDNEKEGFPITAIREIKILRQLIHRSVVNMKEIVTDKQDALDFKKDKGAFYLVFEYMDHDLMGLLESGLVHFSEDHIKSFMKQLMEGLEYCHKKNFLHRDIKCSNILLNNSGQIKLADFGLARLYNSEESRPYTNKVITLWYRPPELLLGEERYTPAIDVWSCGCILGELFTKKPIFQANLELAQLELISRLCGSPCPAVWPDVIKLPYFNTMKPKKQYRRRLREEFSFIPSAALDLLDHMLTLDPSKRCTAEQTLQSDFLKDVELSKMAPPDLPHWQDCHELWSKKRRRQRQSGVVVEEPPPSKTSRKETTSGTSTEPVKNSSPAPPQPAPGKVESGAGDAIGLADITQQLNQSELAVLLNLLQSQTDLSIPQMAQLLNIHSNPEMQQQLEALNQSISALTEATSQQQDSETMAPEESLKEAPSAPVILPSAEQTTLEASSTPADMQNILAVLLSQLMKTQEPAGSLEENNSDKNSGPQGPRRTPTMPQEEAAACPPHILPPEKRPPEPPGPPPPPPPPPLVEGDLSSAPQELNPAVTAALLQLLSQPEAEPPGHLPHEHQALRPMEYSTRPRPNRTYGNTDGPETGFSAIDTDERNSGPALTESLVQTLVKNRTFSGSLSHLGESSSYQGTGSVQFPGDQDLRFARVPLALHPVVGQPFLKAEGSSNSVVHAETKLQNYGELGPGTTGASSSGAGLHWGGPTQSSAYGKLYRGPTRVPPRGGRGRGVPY

System in the first data set: not listed separately
As to the kind of experiment: Toxicity in po dosed Guinea pig assessed as effective dose. The data set is classed as organism-based, Cavia porcellus. The conditions noted are these: in vivo.
`COc1cc(C(=O)NS(=O)(=O)c2ccccc2)ccc1Cc1cn(C)c2ccc(NC(=O)OC3CCCC3)cc12`: the ED50 – broadly, the dose at which the effect has come halfway, by size or by number of responders – was 2.5 mg/kg. In the case of `COc1cc(C(=O)NS(=O)(=O)c2ccccc2C)ccc1Cc1cn(C)c2ccc(NC(=O)OC3CCCC3)cc12` [ZAFIRLUKAST], the 50% effective dose (ED50) came out at 0.3 mg/kg.

Another data set addresses CDK12/Cyclin K (Homo sapiens, UniProt Q9NYV4). In words: Inhibition of 6His-tagged wild type CDK12/cyclin K (unknown origin) infected in insect cells incubated for 1 hr by TR-FRET assay.
Conditions: not given
Background: TR-FRET usually uses a lanthanide donor and a delayed reading to cut background.
Take `CC[C@H](CO)Nc1nc(NCCCc2cccc(C)n2)c2ncn(C(C)C)c2n1`: the EC50 (in general, the concentration giving half of the maximal effect) amounted to 0.036 µM. This lies in the double-digit nanomolar range. Compound `CC[C@H](CO)Nc1nc(NCc2ccn(-c3cccc(Cl)c3)n2)c2ncn(C(C)C)c2n1` came in with an EC50 of 0.044 µM.

Regarding `CC[C@H](CO)Nc1nc(NCc2nc3ccc(F)c(F)c3[nH]2)c2ncn(C(C)C)c2n1`, a half-maximal effect (EC50) was put at 0.041 µM. In turn, `CC[C@H](CO)Nc1nc(NCc2ccc(-c3ccncc3)cc2)c2ncn(C(C)C)c2n1` returned an EC50 of 0.036 µM.

Take `CC[C@H](CO)Nc1nc(NCc2ccc(-c3ccncc3)nc2)c2ncn(C(C)C)c2n1`: the EC50 was 0.028 µM. The same measure, in the same setting: as for `CC[C@H](CO)Nc1nc(NCc2ccc(-c3ccccn3)c(F)c2)c2ncn(C(C)C)c2n1`, the figure is 0.078 µM; as for `CC[C@H](CO)Nc1nc(NCc2ccc(-c3ccccn3)c(=O)[nH]2)c2ncn(C(C)C)c2n1`, 0.021 µM; as for `CC[C@H](CO)Nc1nc(NCCCc2cccc(F)c2)c2ncn(C(C)C)c2n1`, 0.046 µM. With `CC[C@H](CO)Nc1nc(NCc2ccc(-c3ccc(C)s3)cc2)c2ncn(C(C)C)c2n1`, the midpoint of the response, the EC50, lay at 0.015 µM. This EC50 lies about 3.1-fold lower than the previous one. For the compound `CC[C@H](CO)Nc1nc(NCCCc2ccc(Cl)c(Cl)c2)c2ncn(C(C)C)c2n1`, the EC50 was determined as 0.021 µM. The EC50 values of the last two compounds are within 1.5-fold of each other. The same measure, in the same setting: as for `CC[C@H](CO)Nc1nc(NCCCCCc2cccc3ccccc23)c2ncn(C(C)C)c2n1`, the figure is 0.182 µM; as for `CC[C@H](CO)Nc1nc(NCCCc2ccccc2)c2ncn(C(C)C)c2n1`, 0.057 µM. Consider `CC[C@H](CO)Nc1nc(NCc2ccc(-c3ccccc3)cc2)c2ncn(C(C)C)c2n1`, for which the midpoint of the response, the EC50, lay at 0.017 µM.

For `CC[C@H](CO)Nc1nc(NCCCc2ccco2)c2ncn(C(C)C)c2n1`, the EC50 came out at 0.603 µM. Against the preceding compound, the EC50 is about 35-fold higher. The compound `CC[C@H](CO)Nc1nc(NCCCc2ccc(C)c(C)c2)c2ncn(C(C)C)c2n1` yielded an EC50 of 0.018 µM. In the case of `CC[C@H](CO)Nc1nc(NCCCc2ccnn2C)c2ncn(C(C)C)c2n1`, the response was half-maximal at 0.246 µM (EC50). `CC[C@H](CO)Nc1nc(NCc2ccc3ccccc3c2)c2ncn(C(C)C)c2n1` returned an EC50 of 0.06 µM.

In turn, `CC[C@H](CO)Nc1nc(NCCCc2cccc(C)c2)c2ncn(C(C)C)c2n1` had an EC50 of 0.035 µM. This EC50 lies about 1.7-fold lower than the previous one.

The species named for the next data set is Cavia porcellus. As to the kind of experiment: Binding affinity to Guinea pig Leukotriene receptor. The following applies: filed as antagonist.
In the case of `COc1cc(C(=O)NS(=O)(=O)c2ccccc2)ccc1Cc1cn(C)c2ccc(NC(=O)OC3CCCC3)cc12`, the pKb (in general, the Kb on a negative log10 scale, so that one unit is a factor of ten) was determined as 9.69.
